Assay results as given in patent publication US5145951A, “Peptides retroviral protease inhibitors comprising 2-amino-2-methylpropionic acid” (priority 1990, dated 1992).
Starred links: 1 amine or outer side, 2 acyl side, 3 side chain; linkers in the order of their positions; H or OH if unused. Non-standard residues stand in square brackets, D forms with d. Residues, ends and D or L forms follow the SMILES beside them. *: point of attachment. X1 = CC(C)C(C[C@H](O)[C@H](CC1CCCCC1)N[*:1])C(=O)[*:2]; NHCH2(2-pyridyl) = c1ccc(CN*)nc1; Boc = CC(C)(C)OC(=O)*; Aib = CC(C)(N)C(=O)O

Molecular target: T1, purified HIV protease (Human immunodeficiency virus type 1 group M subtype B, UniProt P04585)
T1 construct: purified HIV protease was incubated with synthetic peptide
Assay: HIV-specific protease enzyme test (RP-HPLC analysis of cleavage of a synthetic Gag peptide)
Type: biochemical
Conditions: substance concentration causing 50% inhibition of protease activity; synthetic peptide substrate imitating Gag cleavage site
Description: The results of the examples shown below were determined by the HIV test system described in the following references [compare Hansen, J., Billich, S., Schulze, T., Sukro, S. and Molling, K. (1988), EMBO Journal, Vol. 7, No. 6, pp. 1785-1791]: purified HIV protease was incubated with synthetic peptide which imitates a cleavage site in the Gag precursor protein and represents an in vivo cleavage site of the HIV protease. The resulting cleavage products of the synthetic peptide were analyzed by means of Reverse Phase High Performance Liquid Chromatography (RP-HPLC). The IC50 values indicated relate to the substance concentration which causes a 50% inhibition of the protease activity under the abovementioned test conditions.

Q: Which IC50 does the source give for `CC[C@H](C)[C@H](NC(=O)C(C[C@H](O)[C@H](CC1CCCCC1)NC(=O)[C@H](CC(N)=O)NC(=O)C(C)(C)NC(=O)OC(C)(C)C)C(C)C)C(=O)NCc1ccccn1` (stereo partly drawn) [Example I, Nα-{Nδ-{Nα-{1-[2-(1,1-dimethylethoxycarbonyl)amino-2-methyl]propanoyl}-(S)-asparaginyl}-1-[5-(S)-amino-6-cyclohexyl-4-(S)-hydroxy-2-(1-methyl)ethyl]-hexanoyl}-(S)-isoleucinyl-2-pyridylmethylamide] here?
A: 500 nM

Q: How did the IC50 turn out when `CC[C@H](C)[C@H](NC(=O)C(C[C@H](O)[C@H](CC1CCCCC1)NC(=O)C(C)(C)NC(=O)OC(C)(C)C)C(C)C)C(=O)NCc1ccccn1` (stereo partly drawn) [Example IV, Nα-{Nδ-{1-[2-(1,1-dimethylethoxycarbonyl)amino-2-methyl]propanoyl}-1-[5-(S)-amino-6-cyclohexyl-4-(S)-hydroxy-2-(1-methyl)ethoyl]hexanoyl}-(S)-isoleucinyl-2-pyridylmethylamide] was run?
A: 100 nM

Q: Which IC50 does the source give for `CC[C@H](C)[C@H](NC(=O)C(C[C@H](O)[C@H](CC1CCCCC1)NC(=O)[C@H](CC(N)=O)NC(=O)[C@H](Cc1ccccc1)NC(=O)[C@H](CO)NC(=O)C(C)(C)NC(=O)OC(C)(C)C)C(C)C)C(=O)NCc1ccccn1` (some centres unmarked) [III] (Boc-[Aib]SFN[X1]I-{NHCH2(2-pyridyl)}) here?
A: 5 nM

Q: `CC[C@H](C)[C@H](NC(=O)C(C[C@H](O)[C@H](CC1CCCCC1)NC(=O)[C@H](CC(N)=O)NC(=O)[C@H](Cc1ccccc1)NC(=O)C(C)(C)NC(=O)OC(C)(C)C)C(C)C)C(=O)NCc1ccccn1` (some centres unmarked) [II] (Boc-[Aib]FN[X1]I-{NHCH2(2-pyridyl)}) was tested. Which IC50 did it give?
A: 50 nM

Q: `CC[C@H](C)[C@H](NC(=O)C(C[C@H](O)[C@H](CC1CCCCC1)NC(=O)[C@@H](NC(=O)C(C)(C)NC(=O)OC(C)(C)C)C(C)C)C(C)C)C(=O)NCc1ccccn1` (some centres unmarked) [V] was tested. Which IC50 did it give?
A: 50 nM
